# Assays:
# [1] = Detection of singlet oxygen with 1,3-diphenylisobenzofuran (DPBF) capture spectrophotometry; type: physicochemical; details: DPBF absorbance at 416 nm, 700 nm LED 1.25 mW/cm^2
# Description: A phosphorescence emission of singlet oxygen was easily quenched by water molecules, and the singlet oxygen generated by the target product was detected by using chemical capture spectrophotometry. 1,3-diphenylisobenzofuran (DPBF) was one of the most commonly used singlet oxygen capture agents, and 1,3-diphenylisobenzofuran reacted with the singlet oxygen rapidly to generate a colorless substance, and a content of the singlet oxygen may be reflected by detecting a variation of an absorbance of the 1,3-diphenylisobenzofuran (DPBF) at a characteristic absorption peak (416 nm) using the UV-visible absorption spectrum. An irradiation condition was a 700 nm light-emitting diode (LED) lamp of 1.25 mW/cm^2, a characteristic absorption of the 1,3-diphenylisobenzofuran (DPBF) at the characteristic absorption peak of 416 nm was gradually weakened.
# [2] = system: HeLa human cervical cancer cells; assay: Medicine phototherapy at an animal level (subcutaneous tumor model); type: in vivo, BALB/C nude mice; details: 0.2 mg/kg in situ injection, 2 weeks
# Procedure: All animal experiments in the in vivo experiments were performed in strict compliance with the Chinese regulations for animal experiments using BALB/C nude mice, 5 weeks of age of the mouse, male, and a range of 16 g-25 g of body weight. Each mouse was subcutaneously inoculated with 100 uL of HeLa human cervical cancer cells in the right hind limb (5×10^6) to construct the tumor model, and the experiments were performed two weeks later.
# Mice were randomly grouped by number, and the experiment was divided into an irradiation control group (including irradiation), a dark control group (including a target product; and a degradation product), and an experimental group (including target product+irradiation; and degradation product+irradiation), with six mice in each group. The dark control and experimental groups were administered by in situ injection, respectively: a dose of 0.2 mg/kg was administered, and 20 μL (0.2 mg/ml) of PBS solution of the target product or degradation product was injected in situ. After 30 min, the irradiation control and experimental groups were irradiated, and an irradiation condition was a 700 nm light-emitting diode lamp of 100 mW/cm^2, and 10 min of irradiation per mouse. The six mice were not given a light-avoidance process after therapy and were put into rearing cages to continue to feed, and every two days, a tumor volume was measured by vernier calipers and the body weight was weighed. The mice were therapized for 2 weeks.
# [3] = Monitoring of self-degradation / photodegradation of the photosensitizer in solution (UV-vis, emission, HPLC); type: physicochemical
# Procedure: In the test of Embodiment 7, an irradiation condition was the 700 nm light-emitting diode lamp of 1.25 mW/cm^2 for 0 min-2 min, the characteristic absorption of 1,3-diphenylisobenzofuran (DPBF) at the characteristic absorption peak of 416 nm was gradually weakened.
# The target product obtained in Embodiment 3 was placed under a light-emitting diode lamp for irradiation, and an irradiation condition was 700 nm of 10 mW/cm^2, and the UV-visible absorption spectrum and an emission spectrum of the target product were recorded during irradiation.
# As a control, the reference compound prepared in Embodiment 4 was placed under a light-emitting diode lamp for irradiation, the irradiation condition was 640 nm, 10 mW/cm^2, and the UV-visible absorption spectrum and the emission spectrum of the reference compound were recorded during irradiation.
# [4] = system: HeLa human cervical cancer cells; assay: Detection of cellular phototoxicity (CCK-8 cell viability); type: cell-based; details: 700 nm LED 2.5 mW/cm^2 for 10 min
# Procedure: The cells used in the experiment were HeLa human cervical cancer cells. Cell culture was performed in a DMEM complete culture medium (purchased from Genye, 500 mL) supplemented with 10% inactivated fetal bovine serum (purchased from Shuohua, 500 mL) with 1% penicillin-streptomycin (purchased from Corning, 100 mL) at a temperature of 37° C. and an atmosphere of 5% carbon dioxide.
# Sub-cultured Hela cells were digested by trypsin and dispersed in the culture medium at an appropriate concentration. […]
# 100 μL of PBS buffer was added to each well, and an irradiation condition was a 700 nm light-emitting diode lamp of 2.5 mW/cm^2 for 10 min. […] During this process, a monosodium salt of 2-(2-methoxy-4-nitrophenyl)-3-(4-nitrophenyl)-5-(2,4-disulfonate phenyl)-2H-tetrazolium (WST-8) in the CCK-8 reagent with an electron coupling reagent may be reduced to a water-soluble yellow formazan product by living cells, which causes an absorbance of the solution at 450 nm to vary, and values of variation may be proportional to a count of living cells. The variation of the absorbance at 450 nm of each well was measured using an enzyme labeling apparatus, and a cell viability at each incubation concentration was calculated according to a formula: […]
# [5] = Photosensitization side effects of a photosensitizer at an animal level; type: in vivo, BALB/C nude mice; details: 0.2 mg/kg subcutaneous, site irradiated 10 min (700 nm target product, 640 nm reference compound, 100 mW/cm^2), then simulated natural light 10 mW/cm^2 for 1 hour
# Procedure: All animal experiments in the in vivo experiments were performed in strict compliance with the Chinese regulations for animal experiments, using BALB/C nude mice, 5 weeks of age of the mouse, male, and a range of 16 g-25 g of body weight.
# The mice were randomly grouped by number, and the experiment was divided into a target product group, a reference compound group, and an irradiation control group, with 3 mice in each group. Each of the mice was injected subcutaneously into an abdomen with 20 μL (0.2 mg/mL) of the target product, reference compound solution, or PBS solution, and an administered dose was 0.2 mg/kg. After the injection, a site of administration was irradiated, an irradiation condition of the target product was a 700 nm light-emitting diode lamp, and an irradiation condition of the reference compound was a 640 nm light-emitting diode lamp of 100 mW/cm^2, each of the mice was irradiated for 10 min, and no processing was performed in the irradiation control group. The state of the mouse was observed and a body temperature of the mouse was recorded with a thermal imager. Further, the three groups of mice were exposed to a simulated natural light of 10 mW/cm^2 and irradiated for 1 hour.
# [6] = Detection of superoxide anion free radicals with dihydroethidium (DHE) probe under irradiation; type: physicochemical; details: water solution 10 μM, air atmosphere, 700 nm LED 1.25 mW/cm^2
# Procedure: Under an air atmosphere, dihydroethidium (DHE) was added to a water solution (10 μM) of the target product prepared in Embodiment 3 as a probe of superoxide anion free radicals, and an irradiation condition was a 700 nm light-emitting diode lamp of 1.25 mW/cm^2, a fluorescence of ethidium oxide generated by an oxidation of the DHE by the superoxide radicals was detected, and a fluorescence intensity enhanced with the increase of an irradiation time.
# [7] = UV-visible absorption and emission spectrum scanning (photophysical property); type: physicochemical; details: light excitation, FIG. 8
# Procedure: A UV-visible absorption spectrum scanning and an emission spectrum scanning were performed on the target product prepared in Embodiment 3, and the scanning results are shown in FIGS. 7 and 8. […] Therefore, the target product may include a deep tissue penetration depth in photodynamic therapy or in vivo fluorescence imaging.
smiles,measurement,setting,value
C[N+](C)(C)c1c(F)c(F)c(C2=C3C(=O)OC4=[N+]3[Zn]35[n]6c2ccc6-c2c(oc6c(F)c([N+](C)(C)C)c(F)c(F)c26)[N+]3=c2oc3c(F)c([N+](C)(C)C)c(F)c(F)c3c2=c2ccc([n]25)=C4c2c(F)c(F)c([N+](C)(C)C)c(F)c2F)c(F)c1F (stereo not drawn) [target product],generation of singlet oxygen,[1],ability to produce singlet oxygen under irradiation
same,"body weight, with irradiation",[2]; 700 nm LED 100 mW/cm^2 10 min,no significant weight loss
same,"tumor growth (tumor volume), with irradiation",[2]; 700 nm LED 100 mW/cm^2 10 min single irradiation,effectively inhibited a growth of a subcutaneous tumor
same,"body weight, dark control",[2]; no irradiation,no significant weight loss
same,"tumor growth (tumor volume), dark control",[2]; no irradiation,grows rapidly
same,photodegradation process monitored by HPLC,"[3]; 700 nm LED 2.5 mW/cm^2 for 0 min-10 min, FIG. 15",able to self-degrade and gradually be converted into the degradation product
same,photodegradation in solution (absorption and emission spectra during irradiation),"[3]; 700 nm LED 10 mW/cm^2, FIGS. 29-30",degraded under irradiation
same,degradation under irradiation (characteristic absorption at 440 nm and 710 nm),"[3]; 700 nm LED 10 mW/cm^2 for 2 min-4 min, FIG. 13",degraded under irradiation
same,photodegradation rate as a function of irradiation intensity,[3]; FIG. 14,accelerated with the increase in irradiation intensity
same,cellular phototoxicity,"[4]; 0 μM-4 μM, FIGS. 16-17",relatively strong cellular phototoxicity under irradiation
same,IC50,"[4]; Homo sapiens, 24 h incubation, CCK-8, read-out: half-lethal concentration IC50",1000 nM
same,body temperature after natural light (thermal imager),[5],no significant variation
same,reactions / photosensitization side effects after natural light,[5],did not exhibit abnormal reactions
same,generation of superoxide anion free radicals,[6],ability to generate the superoxide anion free radicals under irradiation
same,fluorescence spectrum region,[7],in the near-infrared region
